Source: ChEMBL document CHEMBL6109142 (J Med Chem, 2025)
pIC50: −log10 of the molar value. The source made the active and inactive calls. The rule behind the calls is not given here.

Test system: SARS-CoV-2
Assay: Antiviral activity against SARS-CoV-2 pseudotyped with delta spike protein infected in human Calu-3 cells assessed as prevention of virus-like particle cellular entry at 300 nM preincubated with cells for 3 hrs followed by viral infection and measured after 72 hrs by ONE-Glo-Ex luciferase assay relative to control
Format: functional, Severe acute respiratory syndrome coronavirus 2
Details: time 75 hrs

| SMILES | Activity |
| --- | --- |
| CC(C)[C@H](NC(=O)[C@H](Cc1cscn1)NC(=O)CCc1ccccc1)C(=O)N[C@@H](CCCNC(=N)N)C(=O)c1nc2ccccc2s1 | 15% |
| N=C(N)NCCCCC(=O)N[C@@H](CCC(N)=O)C(=O)N[C@@H](Cc1ccccc1)C(=O)N[C@@H](CCCNC(=N)N)C(=O)c1nc2ccccc2s1 | 13% |
| N=C(N)NCCC[C@H](NC(=O)[C@H](Cc1ccccc1)NC(=O)[C@H](CCC(N)=O)NC(=O)CCO)C(=O)c1nc2ccccc2s1 | 24% |
| CN(C)C(=O)CC[C@H](NC(=O)CCCCNC(=N)N)C(=O)N[C@@H](Cc1ccccc1)C(=O)N[C@@H](CCCNC(=N)N)C(=O)c1nc2ccccc2s1 | 18% |
| C[C@H](NC(=O)CCCCNC(=N)N)C(=O)N[C@@H](Cc1ccccc1)C(=O)N[C@@H](CCCNC(=N)N)C(=O)c1nc2ccccc2s1 | 14% |
| CC(=O)N[C@@H](CCC(N)=O)C(=O)N[C@@H](CC1CCCCC1)C(=O)N[C@@H](CCCNC(=N)N)C(=O)c1nc2ccccc2s1 | 13% |
| N=C(N)NCCC[C@H](NC(=O)OCc1ccccc1)C(=O)N[C@@H](CCC(N)=O)C(=O)N[C@@H](Cc1ccccc1)C(=O)N[C@@H](CCCNC(=N)N)C(=O)c1nc2ccccc2s1 | 33% |
| N=C(N)NCCC[C@H](NC(=O)[C@H](Cc1ccccc1)NC(=O)[C@@H]1CCC(=O)NCCCC(=O)N1)C(=O)c1nc2ccccc2s1 | 20% |
| N=C(N)NCCCCC(=O)N[C@@H](CC(N)=O)C(=O)N[C@@H](Cc1ccccc1)C(=O)N[C@@H](CCCNC(=N)N)C(=O)c1nc2ccccc2s1 | 19% |
| N=C(N)NCCCCC(=O)N[C@H](CCC(N)=O)C(=O)N[C@@H](Cc1ccccc1)C(=O)N[C@@H](CCCNC(=N)N)C(=O)c1nc2ccccc2s1 | 15% |
| N=C(N)NCCCCC(=O)N[C@@H](Cc1ccccc1)C(=O)N[C@@H](Cc1ccccc1)C(=O)N[C@@H](CCCNC(=N)N)C(=O)c1nc2ccccc2s1 | 23% |

Biological target: T1, Transmembrane protease serine 2 (Homo sapiens, UniProt O15393)
T1 sequence (O15393 1-255 limits assumed): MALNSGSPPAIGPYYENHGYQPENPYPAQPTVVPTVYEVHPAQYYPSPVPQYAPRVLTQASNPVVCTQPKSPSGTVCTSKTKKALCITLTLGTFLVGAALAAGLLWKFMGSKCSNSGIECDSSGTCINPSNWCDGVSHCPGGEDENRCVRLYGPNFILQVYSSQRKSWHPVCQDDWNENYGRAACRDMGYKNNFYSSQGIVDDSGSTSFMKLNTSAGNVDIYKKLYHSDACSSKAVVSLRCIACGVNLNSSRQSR
T1 sequence (O15393 256-492 limits assumed): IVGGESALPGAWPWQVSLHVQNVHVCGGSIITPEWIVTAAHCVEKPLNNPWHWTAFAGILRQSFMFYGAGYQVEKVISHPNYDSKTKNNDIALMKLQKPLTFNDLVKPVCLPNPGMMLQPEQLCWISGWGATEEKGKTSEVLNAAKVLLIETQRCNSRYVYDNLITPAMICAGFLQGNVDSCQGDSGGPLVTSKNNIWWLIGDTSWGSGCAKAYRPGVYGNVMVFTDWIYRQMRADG
Assay: Inhibition of recombinant TMPRSS2 (unknown origin) extracted from baculovirus infected in Sf9 cells using Boc-QAR-AMC as substrate measured after 1 hr by fluorescence based analysis
Details: not given

| SMILES | pIC50 |
| --- | --- |
| CC(C)[C@H](NC(=O)[C@H](Cc1cscn1)NC(=O)CCc1ccccc1)C(=O)N[C@@H](CCCNC(=N)N)C(=O)c1nc2ccccc2s1 | 8.52 |
| N=C(N)NCCCCC(=O)N[C@@H](CCC(N)=O)C(=O)N[C@@H](Cc1ccccc1)C(=O)N[C@@H](CCCNC(=N)N)C(=O)c1nc2ccccc2s1 | 8.85 |
| N=C(N)NCCC[C@H](NC(=O)[C@H](Cc1ccccc1)NC(=O)[C@H](CCC(N)=O)NC(=O)CCO)C(=O)c1nc2ccccc2s1 | 8.85 |
| CN(C)C(=O)CC[C@H](NC(=O)CCCCNC(=N)N)C(=O)N[C@@H](Cc1ccccc1)C(=O)N[C@@H](CCCNC(=N)N)C(=O)c1nc2ccccc2s1 | 9.21 |
| C[C@H](NC(=O)CCCCNC(=N)N)C(=O)N[C@@H](Cc1ccccc1)C(=O)N[C@@H](CCCNC(=N)N)C(=O)c1nc2ccccc2s1 | 9.18 |
| CC(=O)N[C@@H](CCC(N)=O)C(=O)N[C@@H](CC1CCCCC1)C(=O)N[C@@H](CCCNC(=N)N)C(=O)c1nc2ccccc2s1 | 8.89 |
| N=C(N)NCCC[C@H](NC(=O)OCc1ccccc1)C(=O)N[C@@H](CCC(N)=O)C(=O)N[C@@H](Cc1ccccc1)C(=O)N[C@@H](CCCNC(=N)N)C(=O)c1nc2ccccc2s1 | 8.85 |
| N=C(N)NCCC[C@H](NC(=O)[C@H](Cc1ccccc1)NC(=O)[C@@H]1CCC(=O)NCCCC(=O)N1)C(=O)c1nc2ccccc2s1 | 9.00 |
| N=C(N)NCCCCC(=O)N[C@@H](CC(N)=O)C(=O)N[C@@H](Cc1ccccc1)C(=O)N[C@@H](CCCNC(=N)N)C(=O)c1nc2ccccc2s1 | 9.06 |
| N=C(N)NCCCCC(=O)N[C@@H](CCC(N)=O)C(=O)N[C@@H](CO)C(=O)N[C@@H](CCCNC(=N)N)C(=O)c1nc2ccccc2s1 | 8.49 |
| N=C(N)NCCCCC(=O)N[C@H](CCC(N)=O)C(=O)N[C@@H](Cc1ccccc1)C(=O)N[C@@H](CCCNC(=N)N)C(=O)c1nc2ccccc2s1 | 8.85 |
| N=C(N)NCCCCC(=O)N[C@@H](Cc1ccccc1)C(=O)N[C@@H](Cc1ccccc1)C(=O)N[C@@H](CCCNC(=N)N)C(=O)c1nc2ccccc2s1 | 9.18 |

Biological target: T1, Transmembrane protease serine 2
Assay: Inhibition of recombinant TMPRSS2 (unknown origin) extracted from baculovirus infected in Sf9 cells assessed as residual activity using Boc-QAR-AMC as substrate at 1 nM measured after 1 hr by fluorescence based analysis relative to control
Details: not given

| SMILES | Activity |
| --- | --- |
| CC(C)[C@H](NC(=O)[C@H](Cc1cscn1)NC(=O)CCc1ccccc1)C(=O)N[C@@H](CCCNC(=N)N)C(=O)c1nc2ccccc2s1 | 34% |
| N=C(N)NCCCCC(=O)N[C@@H](CCC(N)=O)C(=O)N[C@@H](Cc1ccccc1)C(=O)N[C@@H](CCCNC(=N)N)C(=O)c1nc2ccccc2s1 | 16% |
| N=C(N)NCCC[C@H](NC(=O)[C@H](Cc1ccccc1)NC(=O)[C@H](CCC(N)=O)NC(=O)CCO)C(=O)c1nc2ccccc2s1 | 10% |
| CN(C)C(=O)CC[C@H](NC(=O)CCCCNC(=N)N)C(=O)N[C@@H](Cc1ccccc1)C(=O)N[C@@H](CCCNC(=N)N)C(=O)c1nc2ccccc2s1 | 16% |
| C[C@H](NC(=O)CCCCNC(=N)N)C(=O)N[C@@H](Cc1ccccc1)C(=O)N[C@@H](CCCNC(=N)N)C(=O)c1nc2ccccc2s1 | 8% |
| CC(=O)N[C@@H](CCC(N)=O)C(=O)N[C@@H](CC1CCCCC1)C(=O)N[C@@H](CCCNC(=N)N)C(=O)c1nc2ccccc2s1 | 18% |
| N=C(N)NCCC[C@H](NC(=O)OCc1ccccc1)C(=O)N[C@@H](CCC(N)=O)C(=O)N[C@@H](Cc1ccccc1)C(=O)N[C@@H](CCCNC(=N)N)C(=O)c1nc2ccccc2s1 | 7% |
| N=C(N)NCCC[C@H](NC(=O)[C@H](Cc1ccccc1)NC(=O)[C@@H]1CCC(=O)NCCCC(=O)N1)C(=O)c1nc2ccccc2s1 | 3% |
| N=C(N)NCCCCC(=O)N[C@@H](CC(N)=O)C(=O)N[C@@H](Cc1ccccc1)C(=O)N[C@@H](CCCNC(=N)N)C(=O)c1nc2ccccc2s1 | 11% |
| N=C(N)NCCCCC(=O)N[C@@H](CCC(N)=O)C(=O)N[C@@H](CO)C(=O)N[C@@H](CCCNC(=N)N)C(=O)c1nc2ccccc2s1 | 19% |
| N=C(N)NCCCCC(=O)N[C@H](CCC(N)=O)C(=O)N[C@@H](Cc1ccccc1)C(=O)N[C@@H](CCCNC(=N)N)C(=O)c1nc2ccccc2s1 | 28% |
| N=C(N)NCCCCC(=O)N[C@@H](Cc1ccccc1)C(=O)N[C@@H](Cc1ccccc1)C(=O)N[C@@H](CCCNC(=N)N)C(=O)c1nc2ccccc2s1 | 10% |

Test system: Calu-3
Assay: Cytotoxicity against human Calu-3 cells assessed as cell viability at 10 uM measured after 72 hrs by luminescence based Cell-Titer-Glo assay
Format: toxicity
Details: calu-3, 72 h

| SMILES | Activity |
| --- | --- |
| CC(C)[C@H](NC(=O)[C@H](Cc1cscn1)NC(=O)CCc1ccccc1)C(=O)N[C@@H](CCCNC(=N)N)C(=O)c1nc2ccccc2s1 | Non-toxic |
| N=C(N)NCCCCC(=O)N[C@@H](CCC(N)=O)C(=O)N[C@@H](Cc1ccccc1)C(=O)N[C@@H](CCCNC(=N)N)C(=O)c1nc2ccccc2s1 | Non-toxic |
| N=C(N)NCCC[C@H](NC(=O)[C@H](Cc1ccccc1)NC(=O)[C@H](CCC(N)=O)NC(=O)CCO)C(=O)c1nc2ccccc2s1 | Non-toxic |
| CN(C)C(=O)CC[C@H](NC(=O)CCCCNC(=N)N)C(=O)N[C@@H](Cc1ccccc1)C(=O)N[C@@H](CCCNC(=N)N)C(=O)c1nc2ccccc2s1 | Non-toxic |
| C[C@H](NC(=O)CCCCNC(=N)N)C(=O)N[C@@H](Cc1ccccc1)C(=O)N[C@@H](CCCNC(=N)N)C(=O)c1nc2ccccc2s1 | Non-toxic |
| CC(=O)N[C@@H](CCC(N)=O)C(=O)N[C@@H](CC1CCCCC1)C(=O)N[C@@H](CCCNC(=N)N)C(=O)c1nc2ccccc2s1 | Non-toxic |
| N=C(N)NCCC[C@H](NC(=O)OCc1ccccc1)C(=O)N[C@@H](CCC(N)=O)C(=O)N[C@@H](Cc1ccccc1)C(=O)N[C@@H](CCCNC(=N)N)C(=O)c1nc2ccccc2s1 | Non-toxic |
| N=C(N)NCCC[C@H](NC(=O)[C@H](Cc1ccccc1)NC(=O)[C@@H]1CCC(=O)NCCCC(=O)N1)C(=O)c1nc2ccccc2s1 | Non-toxic |
| N=C(N)NCCCCC(=O)N[C@@H](CC(N)=O)C(=O)N[C@@H](Cc1ccccc1)C(=O)N[C@@H](CCCNC(=N)N)C(=O)c1nc2ccccc2s1 | Non-toxic |
| N=C(N)NCCCCC(=O)N[C@@H](CCC(N)=O)C(=O)N[C@@H](CO)C(=O)N[C@@H](CCCNC(=N)N)C(=O)c1nc2ccccc2s1 | Non-toxic |
| N=C(N)NCCCCC(=O)N[C@H](CCC(N)=O)C(=O)N[C@@H](Cc1ccccc1)C(=O)N[C@@H](CCCNC(=N)N)C(=O)c1nc2ccccc2s1 | Non-toxic |
| N=C(N)NCCCCC(=O)N[C@@H](Cc1ccccc1)C(=O)N[C@@H](Cc1ccccc1)C(=O)N[C@@H](CCCNC(=N)N)C(=O)c1nc2ccccc2s1 | Non-toxic |

Test system: SARS-CoV-2
Assay: Antiviral activity against SARS-CoV-2 EG.5.1 infected in human Calu-3 cells assessed as reduction in residual intracellular nucleocapsid value at 1 uM preincubated with cells for 3 hrs followed by viral infection and measured after 48 hrs by immunostaining based analysis
Format: functional, organism-based
Details: Severe acute respiratory syndrome coronavirus 2, time 51.0 hrs

| SMILES | Activity |
| --- | --- |
| CC(C)[C@H](NC(=O)[C@H](Cc1cscn1)NC(=O)CCc1ccccc1)C(=O)N[C@@H](CCCNC(=N)N)C(=O)c1nc2ccccc2s1 | Active |
| N=C(N)NCCCCC(=O)N[C@@H](CCC(N)=O)C(=O)N[C@@H](Cc1ccccc1)C(=O)N[C@@H](CCCNC(=N)N)C(=O)c1nc2ccccc2s1 | Active |
| N=C(N)NCCC[C@H](NC(=O)[C@H](Cc1ccccc1)NC(=O)[C@H](CCC(N)=O)NC(=O)CCO)C(=O)c1nc2ccccc2s1 | Active |
| CN(C)C(=O)CC[C@H](NC(=O)CCCCNC(=N)N)C(=O)N[C@@H](Cc1ccccc1)C(=O)N[C@@H](CCCNC(=N)N)C(=O)c1nc2ccccc2s1 | Active |
| C[C@H](NC(=O)CCCCNC(=N)N)C(=O)N[C@@H](Cc1ccccc1)C(=O)N[C@@H](CCCNC(=N)N)C(=O)c1nc2ccccc2s1 | Active |
| CC(=O)N[C@@H](CCC(N)=O)C(=O)N[C@@H](CC1CCCCC1)C(=O)N[C@@H](CCCNC(=N)N)C(=O)c1nc2ccccc2s1 | Active |
| N=C(N)NCCC[C@H](NC(=O)OCc1ccccc1)C(=O)N[C@@H](CCC(N)=O)C(=O)N[C@@H](Cc1ccccc1)C(=O)N[C@@H](CCCNC(=N)N)C(=O)c1nc2ccccc2s1 | Active |
| N=C(N)NCCC[C@H](NC(=O)[C@H](Cc1ccccc1)NC(=O)[C@@H]1CCC(=O)NCCCC(=O)N1)C(=O)c1nc2ccccc2s1 | Active |
| N=C(N)NCCCCC(=O)N[C@@H](CC(N)=O)C(=O)N[C@@H](Cc1ccccc1)C(=O)N[C@@H](CCCNC(=N)N)C(=O)c1nc2ccccc2s1 | Active |
| N=C(N)NCCCCC(=O)N[C@@H](CCC(N)=O)C(=O)N[C@@H](CO)C(=O)N[C@@H](CCCNC(=N)N)C(=O)c1nc2ccccc2s1 | Active |
| N=C(N)NCCCCC(=O)N[C@H](CCC(N)=O)C(=O)N[C@@H](Cc1ccccc1)C(=O)N[C@@H](CCCNC(=N)N)C(=O)c1nc2ccccc2s1 | Active |
| N=C(N)NCCCCC(=O)N[C@@H](Cc1ccccc1)C(=O)N[C@@H](Cc1ccccc1)C(=O)N[C@@H](CCCNC(=N)N)C(=O)c1nc2ccccc2s1 | Active |
